From patent publication US6846823B2, “Method of treating lower urinary tract disorders” (Dynogen Pharmaceuticals, Inc., priority 2003, dated 2005)
pIC50, pKi: −log10 of the molar value.

Key:
[1] = system: bladder capacity during acetic acid irritation; assay: Dilute Acetic Acid Model-rats, filling cystometry; type: in vivo, rat; conditions: for bladder capacity vs AA/Veh 3: rats, intraduodenal
Text: Female rats (250-275 g BW, n=8) were anesthetized with urethane (1.2 g/kg) and a saline-filled catheter (PE-50) was inserted into the proximal duodenum for intraduodenal drug administration. A flared-tipped PE-50 catheter was inserted into the bladder dome, via a midline lower abdominal incision, for bladder filling and pressure recording and secured by ligation. The abdominal cavity was moistened with saline and closed by covering with a thin plastic sheet in order to maintain access to the bladder for emptying purposes. Fine silver or stainless steel wire electrodes were inserted into the external urethral sphincter (EUS) percutaneously for electromyography (EMG). Animals were positioned on a heating pad which maintained body temperature at 37° C.
Saline and all subsequent infusates were continuously infused at a rate of about 0.055 ml/min via the bladder filling catheter for about 60 minutes to obtain a baseline of lower urinary tract activity (continuous cystometry; CMG). […] Bladder capacity (ml) was calculated as the flow rate of the bladder filling solution (ml/min) multiplied by the elapsed time between commencement of bladder filling and occurrence of bladder contraction (min).
Following the control period, a 0.25% acetic acid solution in saline (AA) was infused into the bladder to induce bladder irritation. […] Following injection of the third vehicle control, bladder capacity was again measured, as described above but using AA to fill the bladder. […] Bladder capacity was measured as described above using AA to fill the bladder, at 20 and 50 minutes following each subsequent drug treatment.
Bladder capacity was determined for each treatment regimen as described above (flow rate of the bladder filling solution (ml/min) multiplied by the elapsed time between commencement of bladder filling and occurrence of bladder contraction (min)) and converted to % Bladder Capacity normalized to the last vehicle measurement of the AA/Veh 3 treatment group. Data were then analyzed by non-parametric ANOVA for repeated measures (Friedman Test) with Dunn's Multiple Comparison test. […]

[2] = system: bladder capacity during acetic acid irritation; assay: Dilute Acetic Acid Model-Cats, cystometry; type: in vivo, cat
Protocol: Six alpha-chloralose anesthetized (50-100 mg/kg) normal female cats (2.5-3.5 kg; Harlan) were utilized in this study.
MCI-225 was dissolved in 5% methylcellulose in water at 3.0, 10.0 or 30 mg/ml Animals were dosed by volume of injection=body weight in kg.
Female cats (2.5-3.5 kg; Harlan) had their food removed the night before the study. The following morning, the cats were anesthetized with isoflurane and prepped for surgery using aseptic technique. Polyethylene catheters were surgically placed to permit the measurement of bladder pressure, urethral pressure, arterial pressure, respiratory rate as well as for the delivery of drugs. Fine wire electrodes were implanted alongside the external urethral anal sphincter. Following surgery, the cats were slowly switched from the gas anesthetic isoflurane (2-3.5%) to alpha-chloralose (50-100 mg/kg). During control cystometry, saline was slowly infused into the bladder (0.5-1.0 ml/min) for 1 hour. The control cystometry was followed by 0.5% acetic acid in saline for the duration of the experiment. After assessing the cystometric variables under these baseline conditions, the effects of MCI-225 on bladder capacity were determined via a 3 point dose response protocol.
Data was analyzed using a non-parametric One-Way ANOVA (Friedman Test) with the post-hoc Dunn's multiple comparison t test. P<0.05 was considered significant.

[3] = biological target: T1, Monoamine Oxidase-A (MAO-A) (Homo sapiens, UniProt P21397); conditions: cited from earlier work
T1 sequence (P21397 1-527): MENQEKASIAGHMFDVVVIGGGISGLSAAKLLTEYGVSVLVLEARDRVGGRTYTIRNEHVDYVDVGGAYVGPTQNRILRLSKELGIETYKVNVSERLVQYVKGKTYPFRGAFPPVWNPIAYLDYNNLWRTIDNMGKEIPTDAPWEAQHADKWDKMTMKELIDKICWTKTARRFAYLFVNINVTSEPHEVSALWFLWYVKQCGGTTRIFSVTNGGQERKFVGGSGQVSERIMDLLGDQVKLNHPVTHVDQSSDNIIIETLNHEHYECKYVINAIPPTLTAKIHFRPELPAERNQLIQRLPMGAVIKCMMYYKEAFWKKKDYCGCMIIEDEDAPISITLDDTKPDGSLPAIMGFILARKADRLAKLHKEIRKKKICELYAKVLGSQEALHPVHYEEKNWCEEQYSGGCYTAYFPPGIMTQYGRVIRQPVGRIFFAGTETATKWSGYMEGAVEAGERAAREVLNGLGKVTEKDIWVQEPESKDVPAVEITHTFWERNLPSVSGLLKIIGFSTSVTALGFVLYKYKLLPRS

[4] = biological target: T2, Monoamine Oxidase-B (MAO-B) (Homo sapiens, UniProt P27338); conditions: cited from earlier work
T2 sequence (P27338 1-520): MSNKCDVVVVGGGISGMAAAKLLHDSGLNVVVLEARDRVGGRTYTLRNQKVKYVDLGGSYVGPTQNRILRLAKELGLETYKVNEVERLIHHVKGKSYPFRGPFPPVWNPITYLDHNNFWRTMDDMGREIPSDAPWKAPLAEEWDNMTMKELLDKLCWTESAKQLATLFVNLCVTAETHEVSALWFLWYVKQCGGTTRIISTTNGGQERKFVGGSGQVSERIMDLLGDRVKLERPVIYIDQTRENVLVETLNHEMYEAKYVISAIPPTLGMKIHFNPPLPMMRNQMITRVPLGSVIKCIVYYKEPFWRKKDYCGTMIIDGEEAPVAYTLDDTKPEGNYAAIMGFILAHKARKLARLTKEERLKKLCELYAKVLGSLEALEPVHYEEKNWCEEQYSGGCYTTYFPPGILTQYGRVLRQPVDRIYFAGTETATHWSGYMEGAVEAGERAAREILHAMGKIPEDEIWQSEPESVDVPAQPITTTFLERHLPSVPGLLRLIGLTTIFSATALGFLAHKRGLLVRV

[5] = biological target: T3, 5-HT3 receptor (Mus musculus, UniProt P23979); conditions: radioligand binding; read-out: Ki, affinity for the 5-HT3 receptor; cited from earlier work
T3 construct: host or cells: N1E-115 mouse neuroblastoma cells
T3 sequence (P23979 24-489): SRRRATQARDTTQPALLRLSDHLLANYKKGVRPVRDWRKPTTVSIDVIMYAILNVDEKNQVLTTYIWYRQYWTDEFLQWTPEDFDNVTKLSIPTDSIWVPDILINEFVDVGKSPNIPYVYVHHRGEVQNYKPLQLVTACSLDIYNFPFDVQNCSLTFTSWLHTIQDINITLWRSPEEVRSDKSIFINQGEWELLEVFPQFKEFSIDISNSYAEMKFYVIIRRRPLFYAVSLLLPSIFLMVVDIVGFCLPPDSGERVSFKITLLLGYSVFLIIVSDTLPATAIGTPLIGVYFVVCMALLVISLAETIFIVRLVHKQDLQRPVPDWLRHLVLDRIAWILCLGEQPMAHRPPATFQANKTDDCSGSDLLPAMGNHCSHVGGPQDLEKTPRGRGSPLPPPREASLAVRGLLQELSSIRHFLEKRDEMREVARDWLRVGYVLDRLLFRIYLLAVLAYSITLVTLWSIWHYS

[6] = system: α1, α2, β1, β2, 5-HT1, 5-HT1A, 5-HT1C, 5-HT2, 5-HT4, 5-HT6, 5-HT7, D1, D2, Muscarinic, M1, M2, M3, Nicotonic, H1, H2, GABA-A, GABA-B, BZP, Opiate …; conditions: all receptors of the panel other than 5-HT3; read-out: IC50, binding to the additional receptors tested; cited from earlier work
[7] = system: muscarinic receptors; conditions: cited from earlier work
[8] = preclinical and clinical studies, cited from earlier work

Row | SMILES | bladder capacity (% normalized to AA/Veh 3) ([1]; rats n=8, intraduodenal, cumulative 3-30 mg/kg, p=0.0005 Friedman test) | bladder capacity vs AA/Veh 3 ([1]; 10 mg/kg, p<0.05 Dunn's test) | bladder capacity vs AA/Veh 3 ([1]; 30 mg/kg, p<0.001 Dunn's test) | bladder capacity following acetic acid irritation ([2]; cats n=6, 3 point dose response 3, 10, 30 mg/kg, P<0.0103) | bladder capacity, individual dose significance ([2]; cats, 30 mg/kg, P<0.05) | inhibition of MAO-A activity [3] | inhibition of MAO-B activity [4] | pKi [5] | pIC50 [6] | anticholinergic activity [7] | blood levels of gabapentin after XP13512 ([8]; broad range of oral doses) | absorption from the large intestine [8]
1 | Cc1cc2c(-c3ccccc3F)nc(N3CCNCC3)nc2s1 [MCI-225, 4-(2-fluorophenyl)-6-methyl-2-(1-piperazinyl)thieno[2,3-d]pyrimidine] | dose-dependent increase in bladder capacity | significantly higher than AA/Veh 3 | significantly higher than AA/Veh 3 | significant dose-dependent increase in bladder capacity | individual dose significance attained | did not inhibit | did not inhibit | > 7.00 | < 6.00 | substantially no anticholinergic activity | – | –
2 | CC(OC(=O)NCC1(CC(=O)O)CCCCC1)OC(=O)C(C)C (stereo not drawn) [XP13512] | – | – | – | – | – | – | – | – | – | – | dose proportional blood levels of gabapentin | absorbed efficiently from the large intestine
